Legend:
[1] = Drug-forming properties of paclitaxel palmitate preparations (dose forms and preparation methods); type: physicochemical; conditions: drug loading 3 mg/mL
Method: 300 mg paclitaxel palmitate, 3.5 g high-purity egg yolk lecithin (EPCS), and 0.3 g DSPE-PEG2000 were weighed out, added with 3 g propylene glycol, and dissolved at 65° C. to obtain an organic phase; 85 g water was weighed out, and dissolved by stirring and heated at 65° C. to obtain an aqueous phase. The organic phase was injected into the aqueous phase by stirring, and mixed to obtain a crude liposome, which was then placed in an extruder, and sequentially extruded through an extrusion film with a pore size of 0.4 μm, 0.2 μm, 0.1 μm, and 0.05 μm, and added with water to 100 ml. pH was adjusted to 4.5 with hydrochloric acid. The filter was sterilized by filtration through a 0.22 μm filter to obtain liposomal paclitaxel palmitate formulations.
0.3 g paclitaxel palmitate and 0.3 g (or 1.5 g, or 3 g, or 6 g, or 9 g) polyethylene glycol monomethyl ether-polylactic acid were weighed out and dissolved in an appropriate amount of acetonitrile. […]

[2] = Solubility in medium chain oil; type: physicochemical; conditions: oil or lipid

appearance [1]: completely clarified | solubility [2]: < 5000 µg/mL
Structure (SMILES): CC(=O)O[C@H]1C(=O)[C@@]2(C)[C@H]([C@H](OC(=O)c3ccccc3)[C@]3(O)C[C@H](OC(=O)[C@H](O)[C@@H](NC(=O)c4ccccc4)c4ccccc4)C(C)=C1C3(C)C)[C@]1(OC(C)=O)CO[C@@H]1C[C@@H]2O [paclitaxel, Paclitaxel]

— US20190076357A1 (SHANGHAI WEI ER BIOPHARMACEUTICAL TECHNOLOGY CO., LTD., priority 2016, published 2019)
